How the values were obtained:
GL261 tumor cells = test: GL261 cell migration, CLK-peptide combined with ionizing radiation (Example 22); assay type: cell-based, murine; conditions: 50 μg/ml + 5.0 Gy; 6 hours; versus controls
Method: The effects, of combining CLK-peptide with radiation therapy, on invasive tumor cell migration are examined. GL261 cells are resuspended in migration buffer in the presence or absence of CLK-peptide or control (50 μg/ml). The cells are added to the coated wells and allowed to incubate for 1 hour, and either left untreated or irradiated with a single fraction dose of ionizing radiation (5.0 Gy). The GL261 tumor cells are allowed to migrate for 6 hours. Tumor cells that have migrated to the underside of the coated membranes are quantified by staining with crystal violet, and the optical densities of cell-associated dye are measured with a microplate reader at a wavelength of 600 nm. CLK-peptide in combination with ionizing radiation is found to inhibit GL261 cell migration on denatured collagen type-IV substantially when compared to controls.

Human melanoma cells M21 = test: M21 melanoma cell adhesion to denatured collagen type-IV (Example 2); assay type: cell-based; conditions: M21 cells on denatured collagen type-IV; peptide 250 μg/ml
Source text: FIG. 1 is a chart which illustrates M21 human melanoma cell adhesion to untreated denatured type-IV collagen (NT), CLK-peptide treated denatured collagen type-IV, SLK-peptide treated denatured collagen type-IV, and SDR-peptide treated denatured collagen type-IV.
SLK peptides bind to functional epitopes within denatured collagen type-IV that regulate cellular adhesion. Non-tissue culture treated 48-well plates were coated with denatured collagen type-IV. Human melanoma cells M21 (Scripps Research Institute, La Jolla, Calif.) were allowed to attach to the coated wells in the presence or absence of the synthetic peptides CLK, SLK, and SDR, each peptide was at a concentration of 250 μg/ml. SDR peptide is a commercially available peptide that was used as a control (QED Bioscience, Inc., San Diego, Calif.).
Human denatured collagen type-IV (25 μg/ml) was immobilized on 48-well nontissue culture treated plates. Wells were washed and incubated with 1% BSA (bovine serum albumin) in PBS (phosphate-buffered saline) for one hour at 37° C. Subconfluent […] were harvested, washed, and resuspended in adhesion buffer containing RPMI-1640 medium, 1 mM MgCl2, 0.2 mM MnCl2, and 0.5% BSA. […] Cell adhesion was quantified by measuring the optical density of eluted crystal violet at a wavelength of 600 nm.

p21CIP1 = p21CIP1 expression by Western blot in M21 cells; assay type: cell-based, human; conditions: 100 μg/ml
Method: FIG. 12 Inhibition of Cellular Interactions by CLK-Peptide Enhances Expression of P21CIP1 in Human Melanoma (M21) Cells. Non-tissue culture treated 96-well plates were coated with denatured collagen type-IV (10 μg/ml). Human melanoma cells (M21) were allowed to proliferate in the presence or absence of CLK-Peptide or control peptide CTW (100 μg/ml) over a 3-day time course. Cells were then allowed to incubate for 12 hours in 1% serum-containing medium. Expression of P21 CIP1 and actin control were evaluated by Western blotting.
To examine whether the cryptic epitope recognized by CLK-peptide plays a role in cellular proliferation, in vitro proliferations assays were carried out (FIG. 13). In addition, the effects of CLK-peptide on expression of the CDK inhibitor p21^CIP1 were examined by Western blotting methods (FIG. 12). Non-tissue culture treated microtiter wells were coated with denatured collagen type-IV. Human M21 melanoma cells were resuspended in 1% RPMI in the presence or absence of CLK or control CTW-peptide (100 μg/ml). Proliferation was monitored by measuring the relative levels of mitochondrial dehydrogenase using a commercially available (WST-I) proliferation kit (Chemicon).

[1] = system: denatured collagen type-IV; test: Solid phase ELISA, labeled CLK-peptide binding to denatured collagen type-IV
Method: FIG. 15 CLK-Peptide Reacts with a Cryptic Epitope in Collagen Type-IV In Vitro. Reactivity of biotin-labeled CLK-Peptide was assessed by solid phase ELISA. Reactivity was monitored by incubation with HRP-labeled streptavidin. […] All data was corrected for nonspecific binding of HRP-labeled streptavidin only. Data bars represent the mean optical density (O.D.)±standard deviation from triplicate wells. Assays were repeated 2 to 3 times with similar results.
The CLK-peptide was labeled with HRP and used in solid phase ELISA to assess differential binding to either native or denatured collagen type-IV. Microtiter plates were coated with either native or denatured collagen type-IV and HRP-labeled CLK-peptide was allowed to bind. […] In contrast, CLK-Peptide readily bound to denatured collagen type-IV. […] To determine whether this cryptic epitope was also exposed within the ECM in vivo, biotin-labeled CLK-peptide was used to stain M21 human melanoma tumors growing in nude mice (results shown in FIGS. 16A and B and described in Example 15).

GL261 glioblastoma cells = test: GL261 proliferation, CLK-peptide combined with ionizing radiation; assay type: cell-based, murine; conditions: CLK-peptide 50 μg/ml + 5.0 Gy, 3 days, P<0.050, versus control
Method: FIG. 24 CLK-Peptide Enhances Radiosensitivity of […] Glioblastoma. Percent inhibition of tumor cell proliferation was quantitated in the presence or absence of CLK-Peptide, ionizing radiation, and a combination of the two.
Microtiter wells were coated with denatured collagen type-IV (10 μg/ml). GL261 cells were resuspended in proliferation buffer containing 1% serum in the presence or absence of a sub-optimal amount of CLK-peptide or control peptide (CTW) (50 μg/ml).
The cells were added to the coated wells and allowed to incubate for 1 hour, then either untreated or irradiated with a single fraction dose of ionizing radiation (5.0 Gy). A ^60Co source (Theratron) was used to deliver a single fraction of 5 Gy. The cells, on a 30 cm^2 field, were irradiated from a distance of 80 cm with a gantry angle of 180 degrees on a solid water phantom at 0.5 cm depth.
Tumor cells were allowed to proliferate for 3 days and proliferation was quantified by measuring the relative amount of mitochondrial dehydrogenase using a WST-1 tetrazolium salt cleavage assays kit (Chemicon).

Question: For “H-CLKQNGGNFSLG-OH [CLK-peptide, NH2-C-L-K-Q-N-G-G-N-F-S-L-G-COOH]”, which “inhibition of GL261 cell migration on denatured collagen type-IV in combination with ionizing radiation” value (GL261 tumor cells) is on record?
Answer: substantially

Question: And the “blockade of melanoma cell adhesion” value (Human melanoma cells M21)?
Answer: exceeded 95%

Question: What about the “expression of the CDK inhibitor p21CIP1” value (p21CIP1) of the same substance?
Answer: up-regulated

Question: And the “binding to denatured collagen type-IV” value [1]?
Answer: readily bound

Question: And the “increase of the antiproliferative effects of a sub-optimal dose of ionizing radiation” value (GL261 glioblastoma cells)?
Answer: approximately 5 fold
